# Measured values: patent US9062071B2, “Substituted piperidines as HDM2 inhibitors” (Merck Sharp & Dohme Corp, priority 2011, dated 2015)
# Biological target: HDM2 protein (Homo sapiens, UniProt Q00987)
# Experiment: fluorescence polarization screening assay (FP IC50)
# Type: binding
# Details: class symbols
# Experimental: The compounds were evaluated to determine activity at the HDM2 protein by known methods such as the fluorescence polarization screening assay that measures the inhibitory concentration that achieves 50% of maximal activity (FP IC50) and the dissociation constant for inhibitor binding (FP Ki). [Zhang et al., J. Analytical Biochemistry 331: 138-146 (2004)].
# Chain of HDM2 protein (Q00987 whole entry): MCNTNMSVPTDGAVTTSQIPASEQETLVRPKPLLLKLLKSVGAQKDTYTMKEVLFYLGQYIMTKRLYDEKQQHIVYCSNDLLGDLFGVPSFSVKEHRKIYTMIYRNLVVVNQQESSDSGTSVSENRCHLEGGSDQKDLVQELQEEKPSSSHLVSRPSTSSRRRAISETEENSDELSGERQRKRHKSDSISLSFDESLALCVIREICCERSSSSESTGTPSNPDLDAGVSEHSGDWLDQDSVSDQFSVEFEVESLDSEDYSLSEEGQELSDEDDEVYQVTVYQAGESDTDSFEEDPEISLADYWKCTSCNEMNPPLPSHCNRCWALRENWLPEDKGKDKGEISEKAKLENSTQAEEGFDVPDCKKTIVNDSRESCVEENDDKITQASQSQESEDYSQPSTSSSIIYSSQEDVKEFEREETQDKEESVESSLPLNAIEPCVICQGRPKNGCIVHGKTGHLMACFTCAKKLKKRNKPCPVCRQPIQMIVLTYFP
row,Compound,IC50 [nM]
1,"CCC[C@H]1N(C(=O)c2ncccc2C(F)(F)F)CCC[C@@]1(Oc1csc(C(F)(F)F)c1)C(=O)N1Cc2ccc(F)cc2C[C@H]1C(=O)N1CCN(C)CC1 [Compound A160, (3S)-6-fluoro-3-[(4-methylpiperazin-1-yl)carbonyl]-2-{[(2R,3S)-2-propyl-1-{[3-(trifluoromethyl)pyridin-2-yl]carbonyl}-3-{[5-(trifluoromethyl)thiophen-3-yl]oxy}piperidin-3-yl]carbonyl}-1,2,3,4-tetrahydroisoquinoline]",101 to 20000
2,"CCC[C@H]1N(C(=O)c2ncccc2C(F)(F)F)CCC[C@@]1(Oc1csc(C(F)(F)F)c1)C(=O)N1Cc2ccc(Cl)cc2C[C@@H]1C[C@H](COC)C(=O)O [Compound A161, (2R)-3-[(3S)-6-chloro-2-{[(2R,3S)-2-propyl-1-{[3-(trifluoromethyl)pyridin-2-yl]carbonyl}-3-{[5-(trifluoromethyl)thiophen-3-yl]oxy}piperidin-3-yl]carbonyl}-1,2,3,4-tetrahydroisoquinolin-3-yl]-2-(methoxymethyl) propanoic acid]",1 to 100
3,"CCC[C@H]1N(C(=O)c2ncccc2C(F)(F)F)CCC[C@@]1(Oc1csc(C(F)(F)F)c1)C(=O)N1Cc2ccc(Cl)cc2C[C@@H]1CCC(=O)NC [Compound A136, 3-[(3S)-6-chloro-2-{[(2R,3S)-2-propyl-1-{[3-(trifluoromethyl)pyridin-2-yl]carbonyl}-3-{[5-(trifluoromethyl)thiophen-3-yl]oxy}piperidin-3-yl]carbonyl}-1,2,3,4-tetrahydroisoquinolin-3-yl]-N-methylpropanamide]",1 to 100
4,"CCC[C@H]1N(C(=O)c2ncccc2C(F)(F)F)CCC[C@@]1(Oc1csc(C(F)(F)F)c1)C(=O)N1CCc2cc(S(C)(=O)=O)ccc2C1 [Compound A90, 6-(methylsulfonyl)-2-{[(2R,3S)-2-propyl-1-{[3-(trifluoromethyl)pyridin-2-yl]carbonyl}-3-{[5-(trifluoromethyl)thiophen-3-yl]oxy}piperidin-3-yl]carbonyl}-1,2,3,4-tetrahydroisoquinoline]",101 to 20000
5,"CCC[C@H]1N(C(=O)c2ncccc2C(F)(F)F)CCC[C@@]1(Oc1csc(C(F)(F)F)c1)C(=O)N1CCc2cc(Cl)ccc2[C@H]1CCC(=O)O [Compound A45, 3-[(1R)-6-chloro-2-{[(2R,3S)-2-propyl-1-{[3-(trifluoromethyl)pyridin-2-yl]carbonyl}-3-{[5-(trifluoromethyl)thiophen-3-yl]oxy}piperidin-3-yl]carbonyl}-1,2,3,4-tetrahydroisoquinolin-1-yl]propanoic acid]",1 to 100
6,"CCC[C@H]1N(C(=O)c2ncccc2C(F)(F)F)CCC[C@@]1(Oc1csc(C(F)(F)F)c1)C(=O)N1Cc2ccc(F)cc2C[C@@H]1CCCC(=O)O [Compound A146, 4-[(3S)-6-fluoro-2-{[(2R,3S)-2-propyl-1-{[3-(trifluoromethyl)pyridin-2-yl]carbonyl}-3-{[5-(trifluoromethyl)thiophen-3-yl]oxy}piperidin-3-yl]carbonyl}-1,2,3,4-tetrahydroisoquinolin-3-yl]butanoic acid]",1 to 100
7,"CCC[C@H]1N(C(=O)c2ncccc2C(F)(F)F)CCC[C@@]1(Oc1csc(C(F)(F)F)c1)C(=O)N1Cc2ccc(Cl)cc2C[C@@H]1CCCF [Compound A141, (3S)-6-chloro-3-(3-fluoropropyl)-2-{[(2R,3S)-2-propyl-1-{[3-(trifluoromethyl)pyridin-2-yl]carbonyl}-3-{[5-(trifluoromethyl)thiophen-3-yl]oxy}piperidin-3-yl]carbonyl}-1,2,3,4-tetrahydroisoquinoline]",101 to 20000
8,"CCC[C@H]1N(C(=O)c2ncccc2C(F)(F)F)CCC[C@@]1(Oc1csc(C(F)(F)F)c1)C(=O)N1Cc2ccc(Cl)cc2C[C@@H]1C[C@H](C)C(=O)O [Compound A137, (2S)-3-[(3S)-6-chloro-2-{[(2R,3S)-2-propyl-1-{[3-(trifluoromethyl)pyridin-2-yl]carbonyl}-3-{[5-(trifluoromethyl)thiophen-3-yl]oxy}piperidin-3-yl]carbonyl}-1,2,3,4-tetrahydroisoquinolin-3-yl]-2-methylpropanoic acid]",1 to 100
9,"CCC[C@H]1N(C(=O)c2ncccc2C(F)(F)F)CCC[C@@]1(Oc1csc(C(F)(F)F)c1)C(=O)N1CCc2cc(Cl)ccc2C1CC(C(=O)O)C(C)C (stereo partly drawn) [Compound A178, 2-[(6-chloro-2-{[(2R,3S)-2-propyl-1-{[3-(trifluoromethyl)pyridin-2-yl]carbonyl}-3-{[5-(trifluoromethyl)thiophen-3-yl]oxy}piperidin-3-yl]carbonyl}-1,2,3,4-tetrahydroisoquinolin-1-yl)methyl]-3-methylbutanoic acid]",1 to 100
10,"CCC[C@H]1N(C(=O)c2ncccc2C(F)(F)F)CCC[C@@]1(Oc1csc(C(F)(F)F)c1)C(=O)N1Cc2sccc2CC1C(=O)O (stereo partly drawn) [Compound A173, 6-{[(2R,3S)-2-propyl-1-{[3-(trifluoromethyl)pyridin-2-yl]carbonyl}-3-{[5-(trifluoromethyl)thiophen-3-yl]oxy}piperidin-3-yl]carbonyl}-4,5,6,7-tetrahydrothieno[2,3-c]pyridine-5-carboxylic acid]",101 to 20000
11,"CCC[C@H]1N(C(=O)c2ncccc2C(F)(F)F)CCC[C@@]1(Oc1csc(C(F)(F)F)c1)C(=O)N1CCc2cc(Cl)ccc2C1C(N)=O (stereo partly drawn) [Compound A75, 6-chloro-2-{[(2R,3S)-2-propyl-1-{[3-(trifluoromethyl)pyridin-2-yl]carbonyl}-3-{[5-(trifluoromethyl)thiophen-3-yl]oxy}piperidin-3-yl]carbonyl}-1,2,3,4-tetrahydroisoquinoline-1-carboxamide]",1 to 100
12,"CCC[C@H]1N(C(=O)c2ncccc2C(F)(F)F)CCC[C@@]1(Oc1csc(C(F)(F)F)c1)C(=O)N1CCc2cc(F)ccc2C1 [Compound A48, 6-fluoro-2-{[(2R,3S)-2-propyl-1-{[3-(trifluoromethyl)pyridin-2-yl]carbonyl}-3-{[5-(trifluoromethyl)thiophen-3-yl]oxy}piperidin-3-yl]carbonyl}-1,2,3,4-tetrahydroisoquinoline]",101 to 20000
13,"O=C(c1ncccc1C(F)(F)F)N1CCC[C@@](Oc2csc(C(F)(F)F)c2)(C(=O)N2CCc3cc(F)ccc3C2)[C@H]1CCN1CCOCC1 [Compound A7, 6-fluoro-2-{[(2R,3S)-2-(2-morpholin-4-ylethyl)-1-{[3-(trifluoromethyl)pyridin-2-yl]carbonyl}-3-{[5-(trifluoromethyl)thiophen-3-yl]oxy}piperidin-3-yl]carbonyl}-1,2,3,4-tetrahydroisoquinoline]",1 to 100

# Continued, values first:
row,IC50 [nM],Compound
1,1 to 100,"CCC[C@H]1N(C(=O)c2ncccc2C(F)(F)F)CCC[C@@]1(Oc1csc(C(F)(F)F)c1)C(=O)N1CCc2cc(Cl)ccc2C1C(N)=O (stereo partly drawn) [Compound A77, 6-chloro-2-{[(2R,3S)-2-propyl-1-{[3-(trifluoromethyl)pyridin-2-yl]carbonyl}-3-{[5-(trifluoromethyl)thiophen-3-yl]oxy}piperidin-3-yl]carbonyl}-1,2,3,4-tetrahydroisoquinoline-1-carboxamide]"
2,1 to 100,"CCC[C@H]1N(C(=O)c2ncccc2C(F)(F)F)CCC[C@@]1(Oc1csc(C(F)(F)F)c1)C(=O)N1CCc2cc(Cl)ccc2[C@@H]1CCC(=O)NC#N [Compound A80, 3-[(1S)-6-chloro-2-{[(2R,3S)-2-propyl-1-{[3-(trifluoromethyl)pyridin-2-yl]carbonyl}-3-{[5-(trifluoromethyl)thiophen-3-yl]oxy}piperidin-3-yl]carbonyl}-1,2,3,4-tetrahydroisoquinolin-1-yl]-N-cyanopropanamide]"
3,1 to 100,"CCC[C@H]1N(C(=O)c2ncccc2C(F)(F)F)CCC[C@@]1(Oc1csc(C(F)(F)F)c1)C(=O)N1Cc2ccc(F)cc2C[C@H]1CCC(C)O (stereo partly drawn) [Compound A167, 4-[(3R)-6-fluoro-2-{[(2R,3S)-2-propyl-1-{[3-(trifluoromethyl)pyridin-2-yl]carbonyl}-3-{[5-(trifluoromethyl)thiophen-3-yl]oxy}piperidin-3-yl]carbonyl}-1,2,3,4-tetrahydroisoquinolin-3-yl]butan-2-ol]"
4,101 to 20000,"CCC[C@H]1N(C(=O)c2ncccc2C(F)(F)F)CCC[C@@]1(Oc1csc(C(F)(F)F)c1)C(=O)N1CCc2sc(Cl)cc2C1CCCN1CCCC1 (stereo partly drawn) [Compound A33, 2-chloro-5-{[(2R,3S)-2-propyl-1-{[3-(trifluoromethyl)pyridin-2-yl]carbonyl}-3-{[5-(trifluoromethyl)thiophen-3-yl]oxy}piperidin-3-yl]carbonyl}-4-(3-pyrrolidin-1-ylpropyl)-4,5,6,7-tetrahydrothieno[3,2-c]pyridine]"
5,101 to 20000,"CCC[C@H]1N(C(=O)c2ncccc2C(F)(F)F)CCC[C@@]1(Oc1csc(C(F)(F)F)c1)C(=O)N1CCc2sc(C(=O)O)cc2C1 [Compound A10, 5-{[(2R,3S)-2-propyl-1-{[3-(trifluoromethyl)pyridin-2-yl]carbonyl}-3-{[5-(trifluoromethyl)thiophen-3-yl]oxy}piperidin-3-yl]carbonyl}-4,5,6,7-tetrahydrothieno[3,2-c]pyridine-2-carboxylic acid]"
6,101 to 20000,"CCC[C@H]1N(C(=O)c2ncccc2C(F)(F)F)CCC[C@@]1(Oc1csc(C(F)(F)F)c1)C(=O)N1CCc2cc(Cl)c(Cl)cc2C1 [Compound A87, 6,7-dichloro-2-{[(2R,3S)-2-propyl-1-{[3-(trifluoromethyl)pyridin-2-yl]carbonyl}-3-{[5-(trifluoromethyl)thiophen-3-yl]oxy}piperidin-3-yl]carbonyl}-1,2,3,4-tetrahydroisoquinoline]"
7,1 to 100,"CCC[C@H]1N(C(=O)c2ncccc2C(F)(F)F)CCC[C@@]1(Oc1csc(C(F)(F)F)c1)C(=O)N1CCc2cc(F)ccc2C1CCC(=O)NCc1nn[nH]n1 (stereo partly drawn) [Compound A60, 3-(6-fluoro-2-{[(2R,3S)-2-propyl-1-{[3-(trifluoromethyl)pyridin-2-yl]carbonyl}-3-{[5-(trifluoromethyl)thiophen-3-yl]oxy}piperidin-3-yl]carbonyl}-1,2,3,4-tetrahydroisoquinolin-1-yl)-N-(2H-tetrazol-5-ylmethyl)propanamide]"
